# Assays:
# Enterococcus faecium = assay: Antibacterial activity against Enterococcus faecium ATCC 8043 was determined; type: functional
# Escherichia coli [1] = assay: Antibacterial activity against Escherichia coli JUHL was determined; type: functional
# Klebsiella aerogenes = assay: Antibacterial activity against Enterobacter aerogenes ATCC 13048 was determined; type: functional
# Klebsiella pneumoniae = assay: Antibacterial activity against Klebsiella pneumoniae ATCC 8045 was determined; type: functional
# Providencia stuartii = assay: Antibacterial activity against Gram-negative Providencia Stuartii CMX640 was determined; type: functional
# Pseudomonas aeruginosa = assay: Antibacterial activity against Pseudomonas aeruginosa A-5007 was determined; type: functional
# Staphylococcus aureus [2] = assay: Antibacterial activity against Staphylococcus aureus NCTC-10649M was determined; type: functional
# Staphylococcus aureus [3] = assay: Antibacterial activity against Staphylococcus aureus A1775 was determined; type: functional
# Streptococcus pyogenes = assay: Antibacterial activity against Streptococcus pyogenes EES61 was determined; type: functional
# Streptococcus equinus = assay: Antibacterial activity against Gram-positive Streptococcus bovis A5169 was determined; type: functional
# Staphylococcus aureus [4] = assay: Effective dose against Staphylococcus aureus NCTC-10649M in mice upon subcutaneous administration; type: functional; conditions: sc
# Escherichia coli [5] = assay: Effective dose against Escherichia coli JUHL in mice upon subcutaneous administration; type: functional; conditions: sc
# Staphylococcus aureus [6] = assay: Effective dose against Staphylococcus aureus NCTC-10649M in mice upon peroral administration; type: functional; conditions: po
# [7] = Compound was tested for its effective dose against Escherichia coli JUHL in mice upon peroral administration; type: functional; conditions: Mus musculus, po
# DNA gyrase (bacterial) = assay: Compound was tested for bacterial DNA gyrase activity; conditions: Bacteria
# [8] = Enterococcus faecium, ATCC 8043, read-out: MIC
# [9] = Escherichia coli, read-out: MIC
# [10] = Klebsiella aerogenes, ATCC 13048, read-out: MIC
# [11] = Klebsiella pneumoniae, ATCC 8045, read-out: MIC
# [12] = Providencia stuartii, read-out: MIC
# [13] = Pseudomonas aeruginosa, read-out: MIC
# [14] = Staphylococcus aureus, read-out: MIC
# [15] = Streptococcus pyogenes, read-out: MIC
# [16] = Streptococcus equinus, read-out: MIC
SMILES,MIC (Enterococcus faecium; [8]) [µg/mL],MIC (Escherichia coli [1]; [9]) [µg/mL],MIC (Klebsiella aerogenes; [10]) [µg/mL],MIC (Klebsiella pneumoniae; [11]) [µg/mL],MIC (Providencia stuartii; [12]) [µg/mL],MIC (Pseudomonas aeruginosa; [13]) [µg/mL],MIC (Staphylococcus aureus [2]; [14]) [µg/mL],MIC (Staphylococcus aureus [3]; [14]) [µg/mL],MIC (Streptococcus pyogenes; [15]) [µg/mL],MIC (Streptococcus equinus; [16]) [µg/mL],MIC (Klebsiella aerogenes) [µg/mL],MIC (Staphylococcus aureus [2]) [µg/mL],ED50 (Staphylococcus aureus [4]) [mg/kg/day],ED50 (Escherichia coli [5]) [mg/kg/day],ED50 (Staphylococcus aureus [6]) [mg/kg/day],ED50 [7] [mg/kg/day],further results
Cc1c(N2CCC(F)(CN)C2)c(F)cn2c(=O)c(C(=O)O)cc(C3CC3)c12 (stereo not drawn),0.02,0.02,0.05,0.005,0.78,0.39,0.01,0.39,0.02,0.02,–,–,–,–,–,–,–
Cc1c(N2C[C@@H](N)[C@H](C(F)(F)F)C2)c(F)cn2c(=O)c(C(=O)O)cc(C3CC3)c12,0.2,0.05,0.2,0.05,3.1,0.78,0.02,1.56,0.2,0.39,–,–,4.8,–,25.4,–,CC50 (DNA gyrase (bacterial)): 3.8 µg/mL
Cc1c(N2CCC(CN)(CF)C2)c(F)cn2c(=O)c(C(=O)O)cc(C3CC3)c12 (stereo not drawn),0.1,0.05,–,0.1,0.78,0.78,0.02,1.56,0.05,0.1,–,–,1.5,1.5,3.8,> 10,–
Cc1c(N2C[C@@H](N)[C@H](F)C2)c(F)cn2c(=O)c(C(=O)O)cc(C3CC3)c12 (stereo in doubt; 3a) [listing 2 of 2 here],–,–,–,–,–,–,–,–,–,–,–,–,–,–,–,–,CC50 (DNA gyrase (bacterial)): 0.7 µg/mL

# Second part, led by results:
MIC (Enterococcus faecium; [8]) [µg/mL],MIC (Escherichia coli [1]; [9]) [µg/mL],MIC (Klebsiella aerogenes; [10]) [µg/mL],MIC (Klebsiella pneumoniae; [11]) [µg/mL],MIC (Providencia stuartii; [12]) [µg/mL],MIC (Pseudomonas aeruginosa; [13]) [µg/mL],MIC (Staphylococcus aureus [2]; [14]) [µg/mL],MIC (Staphylococcus aureus [3]; [14]) [µg/mL],MIC (Streptococcus pyogenes; [15]) [µg/mL],MIC (Streptococcus equinus; [16]) [µg/mL],MIC (Klebsiella aerogenes) [µg/mL],MIC (Staphylococcus aureus [2]) [µg/mL],SMILES,ED50 (Staphylococcus aureus [4]) [mg/kg/day],ED50 (Escherichia coli [5]) [mg/kg/day],ED50 (Staphylococcus aureus [6]) [mg/kg/day],ED50 [7] [mg/kg/day],further results
–,–,–,–,–,–,–,–,–,–,0.05,0.2,Cc1c(N2C[C@@H](CF)[C@H](N)C2)c(F)cn2c(=O)c(C(=O)O)cc(C3CC3)c12 (racemic),–,–,–,–,MIC (Enterococcus faecium): 0.1 µg/mL; MIC (Escherichia coli [1]): 0.01 µg/mL; MIC (Klebsiella pneumoniae): 0.005 µg/mL; MIC (Providencia stuartii): 0.78 µg/mL; MIC (Pseudomonas aeruginosa): 0.39 µg/mL; MIC (Staphylococcus aureus [3]): 3.1 µg/mL; MIC (Streptococcus pyogenes): 0.1 µg/mL
–,0.02,–,–,–,–,–,–,–,–,0.05,0.02,Cc1c(N2C[C@@H](N)[C@H](F)C2)c(F)cn2c(=O)c(C(=O)O)cc(C3CC3)c12 (stereo in doubt; 3a) [listing 1 of 2 here],–,–,–,–,MIC (Enterococcus faecium): 0.1 µg/mL; MIC (Klebsiella pneumoniae): 0.02 µg/mL; MIC (Providencia stuartii): 1.56 µg/mL; MIC (Pseudomonas aeruginosa): 0.78 µg/mL; MIC (Staphylococcus aureus [3]): 0.78 µg/mL; MIC (Streptococcus pyogenes): 0.2 µg/mL; MIC (Streptococcus equinus): 0.2 µg/mL
0.39,–,0.2,0.02,0.78,0.78,0.05,1.56,0.39,0.39,–,–,Cc1c(N2C[C@H](N)[C@@H](F)C2)c(F)cn2c(=O)c(C(=O)O)cc(C3CC3)c12,4.8,> 5,25,> 10,–
0.2,–,–,0.02,1.56,1.56,–,1.56,0.2,0.39,0.2,0.05,"Cc1c(N2C[C@@H](N)[C@H](F)C2)c(F)cn2c(=O)c(C(=O)O)cc(C3CC3)c12 (stereo in doubt; 3a-R,R7)",4.8,> 5,7.3,> 10,–
0.2,0.1,0.02,0.002,0.78,0.39,0.01,3.1,0.2,0.39,–,–,Cc1c(N2C[C@H](CF)[C@@H](N)C2)c(F)cn2c(=O)c(C(=O)O)cc(C3CC3)c12,1.2,0.4,11.5,3,–
0.1,0.02,0.05,0.01,0.78,0.39,–,1.56,0.1,0.1,–,0.02,Cc1c(N2C[C@@H](CF)[C@H](N)C2)c(F)cn2c(=O)c(C(=O)O)cc(C3CC3)c12,1.2,0.8,–,–,–

# Reference: ChEMBL document CHEMBL1130900, “Synthesis and structure-activity relationships of 2-pyridones: II. 8-(Fluoro-substituted pyrrolidinyl)-2-pyridones as antibacterial agents” (Bioorg Med Chem Lett, 1998)
